The subject of one series is other kinases. Put plainly: kinase specificity, other kinases versus TTK. The class given is biochemical.
Series [1] concerns the target T1, TTK kinase domain (amino acids 519-808) (Homo sapiens, UniProt P33981).
T1 construct: recombinant expressed TTK kinase domain (amino acids 519-808)
T1 sequence (P33981 519-808): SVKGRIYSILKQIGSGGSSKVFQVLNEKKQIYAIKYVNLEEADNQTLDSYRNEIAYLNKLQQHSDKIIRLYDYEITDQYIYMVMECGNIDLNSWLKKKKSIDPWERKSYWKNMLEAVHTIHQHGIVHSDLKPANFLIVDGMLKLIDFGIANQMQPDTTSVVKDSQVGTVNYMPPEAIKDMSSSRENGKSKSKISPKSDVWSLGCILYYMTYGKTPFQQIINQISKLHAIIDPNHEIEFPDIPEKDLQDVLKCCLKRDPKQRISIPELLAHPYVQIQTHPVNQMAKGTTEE
Put plainly: target residence time assay (Biacore T200 surface plasmon resonance), TTK. The series is classed as binding. To be noted: SPR, 22° C. The method, then:
(§1) The affinity, i.e. the equilibrium dissociation constant (KD) (referred to as residence times), of the compound of formula (I) against TTK and PLK1 were determined using a Biacore T200™ surface plasmon resonance instrument using recombinant expressed TTK kinase domain (amino acids 519-808) or biotinylated PLK1. The immobilization of TTK was performed as described in Maia et al. Annals of Oncology, 2015; 26:2180-2192. The immobilization of biotinylated PLK1 was performed as described in Willemsen-Seegers et al. Journal of Molecular Biology, 2017; 429:574-586. The subsequent single cycle kinetic assays were performed at 22° C. using a compound concentration gradient of […], 10, 31.6 and 100 nM for TTK and 10, 31.6, 100, 316 and 1000 nM for PLK1, a contact time of 100 s and a flow rate of […]. The dissociation period was 1200-1800 s and a correction for an unstable surface using a blank run with buffer was performed.
For orientation: In SPR one partner is held on a chip, and binding of the other changes the refractive index at the surface.

The next series has as its target T2, biotinylated PLK1 (Homo sapiens, UniProt P53350).
T2 construct: biotin (biotinylated)
Put plainly: target residence time assay (Biacore T200 surface plasmon resonance), PLK1. The class given is binding. To be noted: SPR, 22° C. The method, then:
as §1

The target of the next series is T3, tumor-derived TTK (Homo sapiens, UniProt P33981).
T3 construct: from tissue; host or cells: MDA-MB-231 xenograft tumours grown in mice
T3 sequence (P33981 1-857): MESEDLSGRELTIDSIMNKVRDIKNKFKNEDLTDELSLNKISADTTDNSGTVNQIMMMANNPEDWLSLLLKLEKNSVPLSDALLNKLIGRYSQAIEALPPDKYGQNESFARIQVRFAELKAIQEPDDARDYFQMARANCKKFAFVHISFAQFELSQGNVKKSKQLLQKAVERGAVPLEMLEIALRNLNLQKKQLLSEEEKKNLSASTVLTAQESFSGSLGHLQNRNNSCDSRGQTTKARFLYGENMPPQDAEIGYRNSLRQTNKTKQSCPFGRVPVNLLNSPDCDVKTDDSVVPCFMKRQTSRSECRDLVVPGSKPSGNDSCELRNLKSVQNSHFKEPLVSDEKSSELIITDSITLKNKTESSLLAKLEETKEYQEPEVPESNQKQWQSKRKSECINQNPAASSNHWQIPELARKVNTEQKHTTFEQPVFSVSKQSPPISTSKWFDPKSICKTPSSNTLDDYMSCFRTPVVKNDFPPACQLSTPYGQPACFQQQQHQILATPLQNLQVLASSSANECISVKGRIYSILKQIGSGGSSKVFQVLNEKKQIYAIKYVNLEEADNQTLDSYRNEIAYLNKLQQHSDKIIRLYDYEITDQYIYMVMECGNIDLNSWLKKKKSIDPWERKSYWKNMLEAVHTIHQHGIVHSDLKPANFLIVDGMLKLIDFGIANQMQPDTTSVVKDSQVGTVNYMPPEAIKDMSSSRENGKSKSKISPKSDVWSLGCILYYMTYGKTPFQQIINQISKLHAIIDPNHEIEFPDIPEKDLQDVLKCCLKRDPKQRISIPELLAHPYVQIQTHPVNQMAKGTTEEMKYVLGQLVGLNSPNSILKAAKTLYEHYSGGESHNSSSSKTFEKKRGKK
Put plainly: tumor TTK target occupancy in MDA-MB-231 xenograft-bearing mice. The series is classed as in vivo. To be noted: MDA-MB-231 tumors. The method, then:
Prolonged TTK target occupancy was also measured in tumors derived from MDA-MB-231 xenograft-bearing mice treated with intermittent i.v. dosing regimen of compound of formula (I). […]

For series [2], the system named is 18 different triple negative breast cancer cell lines. The series can be described thus: 5-day anti-proliferative screen of 18 triple negative breast cancer cell lines. The class given is cell-based. To be noted: 120 h; 5-day screen, 18 TNBC cell lines; read-out: median GI50. From the text:
(§2) In cellular systems, the compound of formula (I) has high potency against sensitive cells.

Series [3] deals with patient-derived tumor xenografts, including TNBC and hepatocellular cancer (HCC) models. Put plainly: monotherapy activity against patient-derived tumor xenografts in mice. The class given is in vivo. To be noted: data not shown.
Description: as §2
Background: A xenograft is tissue or cells of one species grown in another, often human tumour cells in immunodeficient mice.

Series [4] is described as follows: maximum tolerated dose in combination with carboplatin in non-tumor-bearing mice. The class given is in vivo. The text has this:
Carboplatin is standard of care treatment in a number of tumor indications. To determine the combination effect of the compound of formula (I) and carboplatin, the maximum tolerated dose (MTD) of the compound of formula (I) in combination with an optimal dose of carboplatin was first defined in non-tumor-bearing BALB/c nude mice. […]

Series [5] has as its system BR1282 TNBC PDX tumor. Put plainly: first PDX combination study (carboplatin first), BR1282. The method, then:
In a first PDX study, female BALB/c nude mice (CrownBio) of at least 20 g body weight were subcutaneously (s.c.) inoculated in the right flank with tumor fragments (3*3*3 mm) from stock mice bearing the patient-derived xenograft (PDX) triple negative breast cancer (TNBC) tumor, BR1282. Randomization into 5 different treatment groups (8 mice per group) was made when the mean tumor size was 150-200 mm^3. Mice were dosed intravenously (i.v.) twice weekly (2qw) with the compound of formula (I) (7 mg/kg, i.v., 5 mL/kg) or once weekly (qw) carboplatin (60 mg/kg, i.v., 10 mL/kg) or the combination of these doses, in which the compound of formula (I) was administered after carboplatin using either a 4 h or a 24 h gap, when both compounds were administered on the same day/consecutive days. The fifth group received both vehicles using the time interval of 4 h and all groups were dosed twice via the tail vein. Dosing was delayed by 1 day in any mice showing transient body weight loss of >10% at any time point.
(§3) Carboplatin was purchased from Qilu Pharmaceutical Co. Ltd. as a solution (10 mg/mL in 5% (w/v) glucose in pure water). The compound of formula (I) was supplied as a powder by Basilea Pharmaceutica International Ltd. and was prepared freshly as a solution in Ethanol:PEG400:Citric acid 20 mM, at a ratio of 1:1:8 and at a final pH of 3.7, for immediate administration.
(§4) Body weights and tumor volumes were determined at least twice per week, the latter by measuring two dimensions with calipers and applying the formula “V=(L×W^2)/2”, where V is the tumor volume, and L and W are the tumor length and width re-spectively. […] Mice were also culled if the BWL was determined to be >15% for 3 consecutive days. Any mice with >10% BWL, automatically were dosed on one of the following days, as soon as the BWL returned to <10%. All animal protocols were reviewed and approved by the relevant local committees in China, where the studies were performed.
(§5) The statistical significance of efficacy were determined in two different ways using a) the endpoint on day 10 or day 14 depending on the study when it was necessary to cull the vehicle group because of tumor volume exceeding 1500 mm^3, and b) at the endpoint of day 31 in the first study when exponential curve fits were applied to estimate the rates of tumor growth in the different groups. The degree of an effect was quantified by the delta (A) treated/control ratio (ΔT/C) and the statistical significance of the effect was determined by a one-way analysis of variance (1W-ANOVA) with Holms-Sidak applied post-hoc for multiple determinations, where a p-value of <0.05 was considered statistically significant. In addition, an assessment of the combination effect was made based upon the Clarkes Combination Index (CCI), where the CCI=ΔT/CAB−(ΔT/CA*ΔT/CB) in which A and B are two different compounds and AB the combination thereof, where CCI<−0.1 indicates synergy (or a positive interaction), +0.1 (antagonism, or a negative interaction) and between −0.1 and +0.1 indicates additivity (no interaction); see O'Reilly et al. Anti Cancer Drugs 2011; 22:58-78.

The subject of series [6] is BR1282 TNBC PDX tumor. The series can be described thus: second PDX combination study (compound of formula (I) first), BR1282. The method, then:
In a second PDX study, the same model was used as for the first study (TNBC BR1282 PDX model), but this time compound of formula (I) (8 mg/kg, i.v., qw, 5 mL/kg) was administered first and carboplatin (60 mg/kg, i.v., qw, 6 mL/kg) second using a 4 h gap between both administrations and compound of formula (I) was provided qw. Consequently, the mice received both compounds on the same day (4 h gap).
as §3, §4, §5

In a further series the test system is SKOV-3 s.c. xenografts. The series is classed as in vivo. To be noted: day 23. The method, then:
The anti-tumor activity of the compound of formula (I) in combination with carboplatin was evaluated in an ovarian cancer model, using human SKOV-3 cells grown as a solid tumor xenograft subcutaneously (s.c.) in nude mice.
The maximum tolerated dose (MTD) of the compound of formula (I) in combination with an optimal dose of carboplatin was defined in non-tumor bearing BALB/c nude mice in the experiments described above. […] Thus, in this study, using a human ovarian cell line derived xenograft (CDX) model, that schedule was applied and compared directly with the same order of administration with a 1 hr or 24 hr gap between compounds. In addition, the twice-weekly schedule was compared with a weekly schedule of 7 mg/kg BAL0891 (a weekly dose well below the MTD for compound of formula (I) monotherapy) using a 4 hr gap. Treatments continued until day 24 and tumor volumes and body weight were monitored until day 51.

Read-outs that look alike come from different tables or passages of the source. Marks after values point to notes of the source that are not given here.

As usually defined, the GI50 is the concentration giving 50% growth inhibition.

T2 sequence (P53350 whole entry): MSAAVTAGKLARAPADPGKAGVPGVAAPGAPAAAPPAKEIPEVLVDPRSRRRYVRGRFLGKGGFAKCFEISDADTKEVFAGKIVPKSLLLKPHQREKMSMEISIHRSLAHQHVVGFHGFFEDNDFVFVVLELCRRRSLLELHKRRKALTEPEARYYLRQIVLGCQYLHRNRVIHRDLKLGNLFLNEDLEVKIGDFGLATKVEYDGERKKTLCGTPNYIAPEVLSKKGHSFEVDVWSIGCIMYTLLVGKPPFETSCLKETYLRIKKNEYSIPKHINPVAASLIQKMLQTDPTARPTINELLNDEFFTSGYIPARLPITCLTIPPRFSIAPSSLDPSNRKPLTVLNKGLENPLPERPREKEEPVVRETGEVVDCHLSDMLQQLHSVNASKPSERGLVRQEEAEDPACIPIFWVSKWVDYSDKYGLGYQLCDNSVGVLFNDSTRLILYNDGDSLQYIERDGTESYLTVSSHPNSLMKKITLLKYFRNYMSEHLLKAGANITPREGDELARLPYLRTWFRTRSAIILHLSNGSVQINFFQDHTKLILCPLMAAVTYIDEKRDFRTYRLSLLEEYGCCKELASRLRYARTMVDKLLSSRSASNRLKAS

Consider `COc1cc(N2CCNCC2)ccc1Nc1ncc2c(n1)-n1ccc(C(=O)Nc3c(C)cccc3C)c1CC2` [Compound of formula (I)], for which the “other kinase IC50s higher than those for TTK” value in the series with other kinases is listed as “at least 10 fold”. Further, in series [1], the “target-residency on TTK” value was above 12 h. In addition, the “target-residency on PLK1” value at biotinylated PLK1 was “a few minutes”. Further, at tumor-derived TTK (i.v. twice-weekly, last MTD dose), the “time TTK completely occupied after last dose” value was “at least 72 h”. For the same molecule, at tumor-derived TTK (i.v. weekly MTD dosing, repeat experiment), the “time tumor-derived TTK fully drug-occupied after last administration” value is “up to 6 days”. The GI50 in series [2] was determined as 35 nM. Besides, the “activity against patient-derived tumor xenografts” value in series [3] is “significant activity”. Further, the “highest tolerated doses of compound of formula (I) in combination with carboplatin” value in series [4] (2qw i.v., 4 or 24 hours after carboplatin 60 mg/kg qw i.v.) is 6 to 7 mg/kg. Moreover, the “tolerability when compound of formula (I) applied first” value in series [4] (6-8 mg/kg, 24 h gap to carboplatin or 2qw schedule) is “not tolerated”. The “tolerated dose of compound of formula (I) when applied before carboplatin” value in series [4] (weekly, carboplatin 60 mg/kg i.v. qw 4 h later) is 8 mg/kg. Moreover, the “Efficacy: ΔT/C Day 0 up to Day 31” value in the series with BR1282 TNBC PDX tumor [5] (based on mean rate of growth (k), formula (I) 7 mg/kg 2qw i.v., carboplatin 60 mg/kg qw i.v., carboplatin first) is reported as 0.41***. The “Mean difference of mean rate of growth (k), Vehicle vs. treatment” value in the series with BR1282 TNBC PDX tumor [5] (comparator Vehicle, day 0 to latest day 31) amounted to 0.084. Also, the “Efficacy: ΔT/C Day 10” value with BR1282 TNBC PDX tumor [5] (mean change in tumor volume, formula (I) 7 mg/kg 2qw i.v., carboplatin 60 mg/kg qw i.v., carboplatin first) is 0.58. In the series with BR1282 TNBC PDX tumor [5] (mouse, in vivo), the “Tolerability (Day 10) ΔBW (%)” value stood at 0.5 ± 1.6% and the “Tolerability (Day 10) ΔI/C” value is given as 0.96. Moreover, the “Efficacy: ΔT/C Day 0 up to Day 17” value with BR1282 TNBC PDX tumor [6] (based on mean rate of growth (k), formula (I) 8 mg/kg qw first, carboplatin 60 mg/kg qw 4 h later) came out at 0.70. Also, in the series with BR1282 TNBC PDX tumor [6] (comparator Vehicle), the “k means, Mean difference, Vehicle vs. treatment” value was determined as 0.045 and the “Δ tumor volume on day 14, Mean difference, Vehicle vs. treatment” value is on record as 422.3. Besides, the “Efficacy: ΔT/C Day 14” value in the series on BR1282 TNBC PDX tumor [6] (mean change in tumor volume, formula (I) 8 mg/kg qw i.v. first, carboplatin 60 mg/kg qw i.v. 4 h later) is given as 0.60. For the same molecule, in the series with BR1282 TNBC PDX tumor [6] (mouse, in vivo), the “Tolerability (Day 14) ΔBW (%)” value stood at 2.7 ± 2.1% and the “Tolerability (Day 14) ΔT/C” value is on record as 1.00. Moreover, the ΔT/C in the series with SKOV-3 s.c. xenografts (monotherapy Formula (I) 7 mg/kg iv qw) amounted to 0.69. In the series with SKOV-3 s.c. xenografts (monotherapy: Formula (I) 7 mg/kg iv 2qw, Carboplatin 60 mg/kg iv qw), the ΔT/C is listed as 0.64.

The values are drawn from US20250161310A1, “PHARMACEUTICAL COMBINATIONS FOR USE IN THE TREATMENT OF NEOPLASTIC DISEASES” (priority 2022, published 2025).
